Data as given in patent US8337871B2, “Insecticide formulation” (Endura S.p.A., priority 2003, dated 2012).

Key:
[1] = test system: cotton aphid strain (Aphis Gossypii); assay: Mortality assay on cotton aphid (example 19); details: for No. insects alive/no. total insects after 24 hours: in Agral 90, 24 hours
Description: In a mortality assay conducted as reported in the literature [Gunning R. V. et al., J. Econ. Entomol.
A mortality assay was performed as reported in example 4 on a cotton aphid strain (Aphis Gossypii) using the formulation described in example 10, dissolved in 10 ml Agral 90. Data obtained with fenvalerate dissolved in 10 ml Agral 90, and with placebo (10 ml Agral 90) are shown as a reference. In all tests, concentration values are referred to the amount of active principle.

[2] = test system: Bemisia Tabaci strain (B-Biotype) (Silver leaf whitefly); assay: Mortality assay on Bemisia Tabaci (example 18); assay type: in vivo; details: in Agral 90, 48 hours
Description: (B-Biotype) (Silver leaf whitefly) using the formulation described in example 16, dissolved in 10 ml Agral 90.

[3] = test system: Heicoverpa Armigera strain (Cotton Bollworm); assay: Mortality assay on Cotton Bollworm (example 20); assay type: in vivo; details: in Agral 90, 24 hours
Description: Data obtained with αcypermethrin dissolved in 10 ml Agral 90, and with a mixture of αcypermethrin/PBO dissolved in 10 ml of Agral 90 (the PBO content being 0.2% with respect to αcypermethrin) are shown as a reference.

[4] = concentration 0.01 % w/v active principle
[5] = concentration 0.1 % w/v active principle
[6] = concentration 0.0005 % w/v active principle
[7] = concentration 0.001 % w/v active principle

Row | Structure (SMILES) | mortality at 0.002 % strength ([1]; Aphis gossypii, 24 h) | mortality at 0.02 % strength ([1]; Aphis gossypii, 24 h) | mortality at 0.2 % strength ([1]; Aphis gossypii, 24 h) | No. insects alive/no. total insects after 24 hours ([1]; concentration 0.002 % w/v active principle) | No. insects alive/no. total insects after 24 hours ([1]; concentration 0.02 % w/v active principle) | No. insects alive/no. total insects after 24 hours ([1]; concentration 0.2 % w/v active principle) | Mortality % [2, 4] | No. insects alive/no. total insects after 48 hours [2, 4] | Mortality % [2, 5] | No. insects alive/no. total insects after 48 hours [2, 5] | Mortality % [3, 6] | No. insects alive/no. total insects after 24 hours [3, 6] | Mortality % [3, 7] | No. insects alive/no. total insects after 24 hours [3, 7]
1 | CC(C)C(C(=O)OC(C#N)c1cccc(Oc2ccccc2)c1)c1ccc(Cl)cc1 (centres unmarked) [fenvalerate] | 0% | 20% | 40% | 10/10 | 8/10 | 6/10 |  |  |  |  |  |  |  | 
2 | CC1(C)C(C=C(Cl)Cl)C1C(=O)OC(C#N)c1cccc(Oc2ccccc2)c1 (centres unmarked) [αcypermethrin] |  |  |  |  |  |  | 19% | 22/27 | 67% | 4/12 | 40% | 6/10 | 60% | 4/10
